Reference: DBAASP
Values after ≈ are worked out from the molar mass of the structure shown. Blank lines part the entries; values can stand above or below the molecule they belong to.

Tests used:
Assay in all cases: ≥ marks a high value that may be exact or a test limit, other limits are often not marked, values filed in µg/mL are converted to µM
[1] = test system: Bacillus subtilis ATCC 6633
[2] = test system: Candida albicans ATCC 10231
[3] = test system: Escherichia coli ATCC 25922
[4] = test system: Staphylococcus aureus ATCC 25923
[5] = test system: Staphylococcus aureus ATCC 2592
[6] = test system: Candida albicans
[7] = test system: Escherichia coli
[8] = test system: Staphylococcus aureus
[9] = test system: Bacillus subtilis
[10] = test system: Candida albicans ATCC 2002
[11] = test system: Pseudomonas aeruginosa PAO1
[12] = test system: Staphylococcus aureus USA 300
[13] = test system: Pseudomonas aeruginosa ATCC 27853
[14] = test system: Staphylococcus aureus ATCC 33591
[15] = test system: Acinetobacter baumannii
[16] = test system: Enterococcus faecalis ATCC 29212
[17] = test system: Staphylococcus aureus ATCC 29213

MIC [1]: ≥ 54.5 µM
MIC [2]: 54.5 µM (≈ 75 µg/mL)
MIC [3]: 54.5 µM (≈ 75 µg/mL)
MIC [4]: 54.5 µM (≈ 75 µg/mL)
Structure (SMILES): C[C@H](N)C(=O)N[C@@H](CCCN=C(N)N)C(=O)N[C@@H](Cc1c[nH]c2ccccc12)C(=O)N[C@@H](CCCN=C(N)N)C(=O)N[C@@H](Cc1ccccc1)C(=O)N[C@@H](CCCCN)C(=O)N[C@@H](Cc1c[nH]c2ccccc12)C(=O)N[C@@H](C)C(=O)N[C@@H](CCCCN)C(=O)N[C@@H](CCCCN)C(=O)O [ARWRFKWAKK]

MIC [1]: 18.6 µM (≈ 25 µg/mL)
MIC [5]: 9.3 µM (≈ 12.5 µg/mL)
Structure (SMILES): CC[C@H](C)[C@H](NC(=O)CNC(=O)[C@H](C)NC(=O)[C@@H](NC(=O)[C@H](CC(C)C)NC(=O)CNC(=O)[C@@H]1CCCN1C(=O)[C@H](CC(C)C)NC(=O)[C@@H](N)Cc1ccccc1)[C@@H](C)CC)C(=O)N[C@@H](C)C(=O)N[C@@H](CCCCN)C(=O)N[C@@H](CCSC)C(=O)N[C@@H](CC(C)C)C(N)=O [FLPGLIAGIAKML]

MIC [6]: 13.3 µM (≈ 32 µg/mL)
MIC [7]: 13.3 µM (≈ 32 µg/mL)
MIC [8]: 13.3 µM (≈ 32 µg/mL)
Structure (SMILES): CC[C@H](C)[C@H](NC(=O)[C@H](Cc1cnc[nH]1)NC(=O)[C@H](CCCCN)NC(=O)[C@@H](NC(=O)[C@@H](NC(=O)[C@H](CC(=O)O)NC(=O)[C@H](CC(C)C)NC(=O)[C@H](Cc1ccccc1)NC(=O)CN)C(C)C)C(C)C)C(=O)NCC(=O)N[C@@H](CCCCN)C(=O)N[C@@H](C)C(=O)N[C@@H](C)C(=O)N[C@@H](CC(C)C)C(=O)NCC(=O)N[C@@H](C)C(=O)N[C@H](C(=O)N[C@H](C(=O)N[C@@H](Cc1cnc[nH]1)C(=O)N[C@@H](CC(C)C)C(=O)N[C@H](C(=O)N[C@@H](CC(N)=O)C(=O)N[C@@H](CCC(N)=O)C(N)=O)[C@@H](C)CC)[C@@H](C)O)C(C)C [GFLDVVKHIGKAALGAVTHLINQ]

MIC [6]: 34.7 µM (≈ 50 µg/mL)
MIC [8]: > 69.3 µM
Structure (SMILES): CC[C@H](C)[C@H](NC(=O)[C@H](CCCN=C(N)N)NC(=O)[C@H](CC(C)C)NC(=O)CNC(=O)[C@H](CCCCN)NC(=O)CNC(=O)[C@@H]1CCCN1C(=O)[C@H](CC(C)C)NC(=O)[C@H](CC(N)=O)NC(=O)[C@@H]1CCCN1C(=O)[C@H](CO)NC(=O)[C@H](Cc1ccccc1)NC(=O)CN)C(=O)N[C@@H](CO)C(=O)O [GFSPNLPGKGLRIS]

MIC [9]: 29.8 µM (≈ 99.9 µg/mL)
MIC [10]: 3.72 µM (≈ 12.5 µg/mL)
MIC [3]: 14.9 µM (≈ 50 µg/mL)
MIC [5]: 14.9 µM (≈ 50 µg/mL)
Structure (SMILES): CC[C@H](C)[C@H](NC(=O)[C@H](CCCCN)NC(=O)[C@H](CC(N)=O)NC(=O)[C@H](CC(C)C)NC(=O)[C@@H](NC(=O)[C@@H](NC(=O)[C@@H](NC(=O)[C@H](C)NC(=O)[C@H](C)NC(=O)[C@H](CC(N)=O)NC(=O)[C@H](CCCCN)NC(=O)[C@H](CC(C)C)NC(=O)CNC(=O)[C@H](CCC(=O)O)NC(=O)[C@H](CCCCN)NC(=O)[C@@H](NC(=O)[C@H](CO)NC(=O)[C@H](CC(=O)O)NC(=O)[C@H](Cc1c[nH]c2ccccc12)NC(=O)[C@H](Cc1ccccc1)NC(=O)CN)C(C)C)C(C)C)[C@@H](C)O)[C@@H](C)CC)C(=O)N[C@@H](CCCCN)C(=O)N[C@H]1CSSC[C@@H](C(=O)N2CCC[C@H]2C(=O)N2CCC[C@H]2C(=O)N[C@@H](C)C(=O)O)NC(=O)[C@H](CCC(=O)O)NC(=O)[C@H](CO)NC(=O)[C@H]([C@@H](C)CC)NC(=O)[C@H](CCCCN)NC1=O [GFWDSVKEGLKNAAVTILNKIKCKISECPPA]

MIC [3]: > 25 µM
MIC [11]: > 25 µM
MIC [12]: 25 µM (≈ 30.3 µg/mL)
Structure (SMILES): CC(C)C[C@H](NC(=O)[C@H](CC(C)C)NC(=O)[C@H](CCCCN)NC(=O)CNC(=O)[C@H](C)NC(=O)[C@H](C)NC(=O)[C@H](CCCCN)NC(=O)[C@H](C)NC(=O)[C@H](C)NC(=O)[C@H](CO)NC(=O)[C@H](CC(C)C)NC(=O)[C@H](CC(C)C)NC(=O)CN)C(N)=O [GLLSAAKAAGKLL]

MIC [3]: 25 µM (≈ 30.6 µg/mL)
MIC [11]: > 25 µM
MIC [12]: 12.5 µM (≈ 15.3 µg/mL)
Structure (SMILES): CC(C)C[C@H](NC(=O)[C@H](CC(C)C)NC(=O)[C@H](CCCCN)NC(=O)CNC(=O)[C@H](CC(C)C)NC(=O)[C@H](CC(C)C)NC(=O)[C@H](CO)NC(=O)[C@H](CC(C)C)NC(=O)[C@H](CO)NC(=O)[C@H](CC(C)C)NC(=O)[C@H](CC(C)C)NC(=O)CN)C(N)=O [GLLSLSLLGKLL]

Structure (SMILES): C[C@H](NC(=O)[C@H](CCCCN)NC(=O)[C@H](Cc1ccc(O)cc1)NC(=O)[C@H](CCCCN)NC(=O)[C@H](CCCCN)NC(=O)[C@H](CCCCN)NC(=O)[C@H](Cc1ccc(O)cc1)NC(=O)[C@H](CCCN=C(N)N)NC(=O)[C@H](CCCCN)NC(=O)[C@@H](N)CCCCN)C(=O)N[C@@H](Cc1ccc(O)cc1)C(=O)N[C@@H](CCCCN)C(=O)N1CCC[C@H]1C(=O)N[C@@H](Cc1ccc(O)cc1)C(=O)N[C@@H](CCCCN)C(=O)N[C@@H](CCCCN)C(=O)N[C@@H](CCCCN)C(=O)N[C@@H](CCCCN)C(=O)N[C@@H](CCCCN)C(=O)N[C@@H](Cc1ccccc1)C(N)=O [KKRYKKKYKAYKPYKKKKKF]
MIC [3]: 12.5 µM (≈ 33.5 µg/mL)
MIC [13]: 100 µM (≈ 268 µg/mL)
MIC [4]: 35.4 µM (≈ 94.7 µg/mL)
MIC [14]: ≥ 50 µM

MIC [3]: 32 µM (≈ 68.6 µg/mL)
MIC [14]: ≥ 32 µM
Structure (SMILES): CC[C@H](C)[C@H](NC(=O)[C@H](CCC(N)=O)NC(=O)[C@H](CC(C)C)NC(=O)[C@H](CCC(N)=O)NC(=O)[C@@H](NC(=O)[C@H](CCCCN)NC(=O)[C@H](Cc1ccccc1)NC(=O)[C@H](Cc1c[nH]c2ccccc12)NC(=O)[C@@H](N)CCCCN)[C@@H](C)CC)C(=O)N[C@@H](CCCCN)C(=O)N[C@@H](CCCCN)C(=O)N[C@@H](Cc1c[nH]c2ccccc12)C(=O)N[C@@H](CCCCN)C(=O)N[C@@H](CC(N)=O)C(=O)N[C@@H](CCCCN)C(=O)N[C@@H](CCCCN)C(N)=O [KWFKIQLQIKKWKNKK]

MIC [15]: 13.5 µM (≈ 32 µg/mL)
MIC [16]: > 13.5 µM
MIC [3]: 5.06 µM (≈ 12 µg/mL)
MIC [13]: 6.74 µM (≈ 16 µg/mL)
MIC [17]: > 13.5 µM
Structure (SMILES): CC(C)C[C@H](NC(=O)[C@H](CC(C)C)NC(=O)[C@H](CCCNC(=N)N)NC(=O)[C@H](CCCCN)NC(=O)[C@H](CCCNC(=N)N)NC(=O)[C@H](CC(C)C)NC(=O)[C@H](CCCCN)NC(=O)[C@H](CCCNC(=N)N)NC(=O)[C@H](CC(C)C)NC(=O)[C@H](CC(C)C)NC(=O)[C@H](CC(C)C)NC(=O)[C@H](CCCNC(=N)N)NC(=O)[C@H](CCCCN)NC(=O)[C@H](CCCNC(=N)N)NC(=O)[C@H](CC(C)C)NC(=O)[C@H](CCCCN)NC(=O)[C@H](CCCNC(=N)N)NC(=O)[C@@H](N)CC(C)C)C(=O)O [LRKLRKRLLLRKLRKRLL]

MIC [3]: 32 µM (≈ 71.3 µg/mL)
MIC [14]: ≥ 64 µM
Structure (SMILES): CC[C@H](C)[C@H](NC(=O)[C@H](CCCCN)NC(=O)[C@@H](NC(=O)[C@H](CCC(N)=O)NC(=O)[C@@H](N)CCCN=C(N)N)[C@@H](C)CC)C(=O)N[C@@H](Cc1c[nH]c2ccccc12)C(=O)N[C@@H](Cc1ccccc1)C(=O)N[C@@H](CCC(N)=O)C(=O)N[C@@H](CC(N)=O)C(=O)N[C@@H](CCCN=C(N)N)C(=O)N[C@@H](CCCN=C(N)N)C(=O)N[C@@H](CC(C)C)C(=O)N[C@@H](CCCCN)C(=O)N[C@@H](Cc1c[nH]c2ccccc12)C(=O)N[C@@H](CCCCN)C(=O)N[C@@H](CCCCN)C(N)=O [RQIKIWFQNRRLKWKK]

MIC [9]: ≥ 39.8 µM
MIC [10]: 19.9 µM (≈ 60 µg/mL)
MIC [3]: 39.8 µM (≈ 120 µg/mL)
MIC [5]: 4.98 µM (≈ 15 µg/mL)
Structure (SMILES): CC[C@H](C)[C@H](NC(=O)[C@H](CCC(N)=O)NC(=O)[C@H](CCCCN)NC(=O)[C@H](Cc1c[nH]c2ccccc12)NC(=O)[C@H](CC(C)C)NC(=O)[C@H](CCC(N)=O)NC(=O)CNC(=O)[C@H](CC(C)C)NC(=O)[C@H](CCCCN)NC(=O)[C@H](C)NC(=O)[C@H](CCC(=O)O)NC(=O)[C@H](CCCCN)NC(=O)[C@@H](NC(=O)[C@H](CCSC)NC(=O)[C@@H](NC(=O)[C@@H](NC(=O)[C@@H](NC(=O)[C@@H](N)CO)[C@@H](C)CC)[C@@H](C)CC)[C@@H](C)O)[C@@H](C)O)C(=O)N[C@@H](C)C(=O)N[C@H]1CSSC[C@@H](C(=O)O)NC(=O)[C@H]([C@@H](C)O)NC(=O)[C@H](CC(N)=O)NC(=O)[C@H](Cc2ccc(O)cc2)NC(=O)[C@H](CC(C)C)NC(=O)[C@H](CCCN=C(N)N)NC1=O [SIITMTKEAKLGQLWKQIACRLYNTC]

MIC [6]: 200 µM (≈ 536 µg/mL)
MIC [7]: 20 µM (≈ 53.6 µg/mL)
MIC [8]: 100 µM (≈ 268 µg/mL)
Structure (SMILES): CC[C@H](C)[C@H](NC(=O)[C@H](CCCCN)NC(=O)[C@H](CS)NC(=O)[C@H](C)NC(=O)[C@@H](NC(=O)[C@H](Cc1ccccc1)NC(=O)CNC(=O)[C@H](CC(C)C)NC(=O)CNC(=O)[C@@H](NC(=O)[C@H](CCCCN)NC(=O)CNC(=O)[C@H](CC(C)C)NC(=O)[C@H](CC(N)=O)NC(=O)[C@H](CCCN=C(N)N)NC(=O)[C@H](CC(C)C)NC(=O)[C@@H](NC(=O)[C@H](CO)NC(=O)[C@H](CC(C)C)NC(=O)[C@H](CCSC)NC(=O)[C@@H](N)CO)C(C)C)C(C)C)C(C)C)C(=O)N[C@@H](CC(N)=O)C(=O)N[C@@H](CCCCN)C(=O)N[C@@H](CCC(N)=O)C(=O)N[C@@H](CS)C(=O)O [SMLSVLRNLGKVGLGFVACKINKQC]
